Measured values from patent US7563787B2, “Substituted pyrazole compounds” (Miikana Therapeutics, Inc., priority 2005, dated 2009).

Key:
Type in all cases: biochemical
CSF1R (FMS) = molecular target: T1, CSF1R (FMS) (Homo sapiens, UniProt P07333); assay: Kinase Selectivity Assay; settings: read-out: Percent Inhibition at 1 μM; further: ATP at apparent Km or 100 µM
T1 construct: purchased Invitrogen, Carlsbad, Calif
Description: (§1) Compounds were assayed for inhibitory activity against a panel of different kinase enzymes at a concentration of 1 μM. Where appropriate, full-length enzymes or catalytically active fragments, with N-terminal or C-terminal His- or GST-tags, were used (Invitrogen, Carlsbad, Calif.). Test compounds were initially diluted to 100× test concentration in 100% DMSO. This 100× concentration was then diluted to a 4× working concentration in Kinase Buffer (50 mM HEPES pH 7.5, 0.01% Brij-35, 10 mM MgCl2, 1 mM EGTA) and 2.5 μL was then added to a low volume NBS, 384-well plate (Corning, Corning, N.Y.). Five μL of a 2× peptide/kinase mixture (Invitrogen, Carlsbad, Calif.), as appropriate (listed in Table 3), was then added and the reaction was then initiated by addition of 2.5 μL of a 4× working concentration of ATP in Kinase Buffer.

AKT1 (PKB alpha) = molecular target: T2, AKT1 (PKB alpha) (Homo sapiens, UniProt P31749); assay: Kinase Selectivity Assay; settings: read-out: Percent Inhibition at 1 μM; further: ATP at apparent Km or 100 µM
T2 construct: purchased Invitrogen, Carlsbad, Calif
Description: as §1

YES1 = molecular target: T3, YES1 (Homo sapiens, UniProt P07947); assay: Kinase Selectivity Assay; settings: read-out: Percent Inhibition at 1 μM; further: ATP at apparent Km or 100 µM
T3 construct: purchased Invitrogen, Carlsbad, Calif
Description: as §1

JAK2 = molecular target: T4, JAK2 (Homo sapiens, UniProt O60674); assay: Kinase Selectivity Assay; settings: read-out: Percent Inhibition at 1 μM; further: ATP at apparent Km or 100 µM
T4 construct: full-length enzymes or catalytically active fragments; purchased Invitrogen
T4 sequence (O60674 whole entry, the tested form may be a part): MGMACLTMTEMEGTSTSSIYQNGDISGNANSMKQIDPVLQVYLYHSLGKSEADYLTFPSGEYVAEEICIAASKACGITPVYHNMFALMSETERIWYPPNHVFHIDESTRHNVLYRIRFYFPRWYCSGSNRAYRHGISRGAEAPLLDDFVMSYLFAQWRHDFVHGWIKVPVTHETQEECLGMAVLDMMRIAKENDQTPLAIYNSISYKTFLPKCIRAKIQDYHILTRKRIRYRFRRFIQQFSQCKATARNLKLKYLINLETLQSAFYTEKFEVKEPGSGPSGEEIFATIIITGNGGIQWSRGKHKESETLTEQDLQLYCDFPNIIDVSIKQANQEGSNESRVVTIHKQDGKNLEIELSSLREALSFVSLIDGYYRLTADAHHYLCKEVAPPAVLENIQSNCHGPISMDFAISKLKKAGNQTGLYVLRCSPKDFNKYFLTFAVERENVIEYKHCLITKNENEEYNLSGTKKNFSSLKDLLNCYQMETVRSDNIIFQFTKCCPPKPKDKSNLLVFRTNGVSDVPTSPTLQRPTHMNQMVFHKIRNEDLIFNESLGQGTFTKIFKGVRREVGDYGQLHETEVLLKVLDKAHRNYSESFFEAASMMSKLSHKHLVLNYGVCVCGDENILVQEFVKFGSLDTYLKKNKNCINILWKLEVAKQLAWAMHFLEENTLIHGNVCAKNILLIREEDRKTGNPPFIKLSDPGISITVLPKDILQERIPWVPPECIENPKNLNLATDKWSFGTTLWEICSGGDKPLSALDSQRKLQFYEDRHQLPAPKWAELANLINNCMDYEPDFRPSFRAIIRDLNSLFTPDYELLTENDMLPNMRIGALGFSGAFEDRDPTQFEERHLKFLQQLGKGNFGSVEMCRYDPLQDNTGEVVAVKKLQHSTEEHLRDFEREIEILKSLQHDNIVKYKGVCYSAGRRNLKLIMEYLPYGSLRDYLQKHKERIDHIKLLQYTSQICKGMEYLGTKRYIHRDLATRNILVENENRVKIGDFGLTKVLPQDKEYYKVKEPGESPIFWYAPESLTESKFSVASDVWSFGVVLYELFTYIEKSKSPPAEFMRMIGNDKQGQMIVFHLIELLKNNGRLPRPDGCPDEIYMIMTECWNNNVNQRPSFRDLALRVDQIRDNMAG
Description: as §1

RET = molecular target: T5, RET (Homo sapiens, UniProt P07949); assay: Kinase Selectivity Assay; settings: read-out: Percent Inhibition at 1 μM; further: ATP at apparent Km or 100 µM
T5 construct: full-length enzymes or catalytically active fragments; purchased Invitrogen
Description: as §1

EPHA1 = molecular target: T6, EPHA1 (Homo sapiens, UniProt P21709); assay: Kinase Selectivity Assay; settings: read-out: Percent Inhibition at 1 μM; further: ATP at apparent Km or 100 µM
T6 construct: purchased Invitrogen, Carlsbad, Calif
Description: as §1

FLT4 (VEGFR3) = molecular target: T7, FLT4 (VEGFR3) (Homo sapiens, UniProt P35916); assay: Kinase Selectivity Assay; settings: read-out: Percent Inhibition at 1 μM; further: ATP at apparent Km or 100 µM
T7 construct: full-length enzymes or catalytically active fragments; purchased Invitrogen
Description: as §1

KIT T670I = molecular target: T8, KIT T670I (Homo sapiens, UniProt P10721, T670I); assay: Kinase Selectivity Assay; settings: read-out: Percent Inhibition at 1 μM; further: ATP at apparent Km or 100 µM
T8 construct: full-length enzymes or catalytically active fragments; purchased Invitrogen
Description: as §1

BTK = molecular target: T9, BTK (Homo sapiens, UniProt Q06187); assay: Kinase Selectivity Assay; settings: read-out: Percent Inhibition at 1 μM; further: ATP at apparent Km or 100 µM
T9 construct: purchased Invitrogen, Carlsbad, Calif
Description: as §1

PDGFRA D842V = molecular target: T10, PDGFRA D842V (Homo sapiens, UniProt P16234, D842V); assay: Kinase Selectivity Assay; settings: read-out: Percent Inhibition at 1 μM; further: ATP at apparent Km or 100 µM
T10 construct: full-length enzymes or catalytically active fragments; purchased Invitrogen
T10 sequence (P16234 24-1089 D842V): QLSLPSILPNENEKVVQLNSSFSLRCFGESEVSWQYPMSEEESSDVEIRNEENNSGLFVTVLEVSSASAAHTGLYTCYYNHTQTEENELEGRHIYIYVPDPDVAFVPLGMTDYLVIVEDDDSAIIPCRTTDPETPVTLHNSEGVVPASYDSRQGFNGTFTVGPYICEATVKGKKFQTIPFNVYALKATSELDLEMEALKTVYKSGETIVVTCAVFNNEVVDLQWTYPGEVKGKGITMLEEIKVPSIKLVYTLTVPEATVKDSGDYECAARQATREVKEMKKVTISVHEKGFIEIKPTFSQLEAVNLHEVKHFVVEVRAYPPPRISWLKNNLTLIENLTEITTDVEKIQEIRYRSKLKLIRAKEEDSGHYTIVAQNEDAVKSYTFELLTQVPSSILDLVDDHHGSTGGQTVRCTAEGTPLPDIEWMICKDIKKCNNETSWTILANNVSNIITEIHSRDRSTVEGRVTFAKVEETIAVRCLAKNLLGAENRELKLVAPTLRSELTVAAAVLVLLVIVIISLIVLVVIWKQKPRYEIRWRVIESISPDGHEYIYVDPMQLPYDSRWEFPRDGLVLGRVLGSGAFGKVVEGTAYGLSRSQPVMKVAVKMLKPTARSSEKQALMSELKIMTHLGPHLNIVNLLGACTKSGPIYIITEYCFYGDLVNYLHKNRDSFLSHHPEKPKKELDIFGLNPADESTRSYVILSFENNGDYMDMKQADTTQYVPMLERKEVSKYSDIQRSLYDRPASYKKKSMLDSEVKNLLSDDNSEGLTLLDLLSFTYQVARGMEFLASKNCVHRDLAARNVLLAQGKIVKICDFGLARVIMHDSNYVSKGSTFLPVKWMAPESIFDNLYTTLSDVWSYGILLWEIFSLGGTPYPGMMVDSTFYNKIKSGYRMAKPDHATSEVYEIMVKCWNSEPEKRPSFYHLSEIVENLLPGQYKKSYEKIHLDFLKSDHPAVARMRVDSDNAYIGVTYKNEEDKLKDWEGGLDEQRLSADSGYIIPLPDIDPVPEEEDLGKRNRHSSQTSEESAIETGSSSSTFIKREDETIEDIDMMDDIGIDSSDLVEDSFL
Description: as §1

GSK3A (GSK3 alpha) = molecular target: T11, GSK3A (GSK3 alpha) (Homo sapiens, UniProt P49840); assay: Kinase Selectivity Assay; settings: read-out: Percent Inhibition at 1 μM; further: ATP at apparent Km or 100 µM
T11 construct: full-length enzymes or catalytically active fragments; purchased Invitrogen
Description: as §1

FLT3 D835Y = molecular target: T12, FLT3 D835Y (Homo sapiens, UniProt P36888, D835Y); assay: Kinase Selectivity Assay; settings: read-out: Percent Inhibition at 1 μM; further: ATP at apparent Km or 100 µM
T12 construct: full-length enzymes or catalytically active fragments; purchased Invitrogen
Description: as §1

PDGFRA (PDGFR alpha) = molecular target: T13, PDGFRA (PDGFR alpha) (Homo sapiens, UniProt P16234); assay: Kinase Selectivity Assay; settings: read-out: Percent Inhibition at 1 μM; further: ATP at apparent Km or 100 µM
T13 construct: full-length enzymes or catalytically active fragments; purchased Invitrogen
T13 sequence (P16234 24-1089): as the sequence (P16234 24-1089 D842V) above, with V819D counted along it
Description: as §1

CDK2/cyclin A = molecular target: T14, CDK2/cyclin A (Homo sapiens, UniProt P24941); assay: Kinase Selectivity Assay; settings: read-out: Percent Inhibition at 1 μM; further: ATP at apparent Km or 100 µM
T14 construct: purchased Invitrogen, Carlsbad, Calif
Description: as §1

GSK3B (GSK3 beta) = molecular target: T15, GSK3B (GSK3 beta) (Homo sapiens, UniProt P49841); assay: Kinase Selectivity Assay; settings: read-out: Percent Inhibition at 1 μM; further: ATP at apparent Km or 100 µM
T15 construct: full-length enzymes or catalytically active fragments; purchased Invitrogen
T15 sequence (P49841 whole entry, the tested form may be a part): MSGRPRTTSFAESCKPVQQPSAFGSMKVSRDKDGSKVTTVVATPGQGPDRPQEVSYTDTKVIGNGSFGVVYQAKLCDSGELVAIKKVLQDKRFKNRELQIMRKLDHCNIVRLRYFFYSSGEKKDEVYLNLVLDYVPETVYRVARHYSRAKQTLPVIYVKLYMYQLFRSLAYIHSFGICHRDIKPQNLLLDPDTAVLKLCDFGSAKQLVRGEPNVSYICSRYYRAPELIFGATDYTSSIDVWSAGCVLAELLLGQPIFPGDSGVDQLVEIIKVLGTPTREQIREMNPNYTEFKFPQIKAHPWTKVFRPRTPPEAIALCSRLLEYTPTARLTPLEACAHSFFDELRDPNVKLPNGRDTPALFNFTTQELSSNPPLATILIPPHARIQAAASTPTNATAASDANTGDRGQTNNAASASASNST
Description: as §1

BMX = molecular target: T16, BMX (Homo sapiens, UniProt P51813); assay: Kinase Selectivity Assay; settings: read-out: Percent Inhibition at 1 μM; further: ATP at apparent Km or 100 µM
T16 construct: purchased Invitrogen, Carlsbad, Calif
T16 sequence (P51813 whole entry): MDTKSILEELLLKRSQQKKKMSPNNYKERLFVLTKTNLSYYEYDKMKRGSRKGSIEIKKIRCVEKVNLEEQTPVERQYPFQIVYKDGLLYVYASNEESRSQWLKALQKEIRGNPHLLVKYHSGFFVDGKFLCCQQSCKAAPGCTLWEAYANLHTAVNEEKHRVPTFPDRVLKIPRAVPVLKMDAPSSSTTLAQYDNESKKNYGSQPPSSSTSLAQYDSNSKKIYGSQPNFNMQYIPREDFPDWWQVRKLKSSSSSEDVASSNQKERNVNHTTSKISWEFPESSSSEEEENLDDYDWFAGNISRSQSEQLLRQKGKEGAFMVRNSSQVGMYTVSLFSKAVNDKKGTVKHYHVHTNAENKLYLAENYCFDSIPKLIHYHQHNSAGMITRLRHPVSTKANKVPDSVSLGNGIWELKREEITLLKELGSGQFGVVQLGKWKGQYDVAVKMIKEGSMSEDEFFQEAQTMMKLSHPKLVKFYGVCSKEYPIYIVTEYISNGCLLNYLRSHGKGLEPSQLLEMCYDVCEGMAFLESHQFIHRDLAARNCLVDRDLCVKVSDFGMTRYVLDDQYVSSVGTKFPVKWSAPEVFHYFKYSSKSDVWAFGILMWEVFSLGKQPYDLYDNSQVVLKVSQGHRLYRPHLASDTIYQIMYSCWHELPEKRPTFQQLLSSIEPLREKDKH
Description: as §1

EPHB1 = molecular target: T17, EPHB1 (Homo sapiens, UniProt P54762); assay: Kinase Selectivity Assay; settings: read-out: Percent Inhibition at 1 μM; further: ATP at apparent Km or 100 µM
T17 construct: purchased Invitrogen, Carlsbad, Calif
Description: as §1

IRAK4 = molecular target: T18, IRAK4 (Homo sapiens, UniProt Q9NWZ3); assay: Kinase Selectivity Assay; settings: read-out: Percent Inhibition at 1 μM; further: ATP at apparent Km or 100 µM
T18 construct: full-length enzymes or catalytically active fragments; purchased Invitrogen
Description: as §1

TBK1 = molecular target: T19, TBK1 (Homo sapiens, UniProt Q9UHD2); assay: Kinase Selectivity Assay; settings: read-out: Percent Inhibition at 1 μM; further: ATP at apparent Km or 100 µM
T19 construct: purchased Invitrogen, Carlsbad, Calif
T19 sequence (Q9UHD2 whole entry): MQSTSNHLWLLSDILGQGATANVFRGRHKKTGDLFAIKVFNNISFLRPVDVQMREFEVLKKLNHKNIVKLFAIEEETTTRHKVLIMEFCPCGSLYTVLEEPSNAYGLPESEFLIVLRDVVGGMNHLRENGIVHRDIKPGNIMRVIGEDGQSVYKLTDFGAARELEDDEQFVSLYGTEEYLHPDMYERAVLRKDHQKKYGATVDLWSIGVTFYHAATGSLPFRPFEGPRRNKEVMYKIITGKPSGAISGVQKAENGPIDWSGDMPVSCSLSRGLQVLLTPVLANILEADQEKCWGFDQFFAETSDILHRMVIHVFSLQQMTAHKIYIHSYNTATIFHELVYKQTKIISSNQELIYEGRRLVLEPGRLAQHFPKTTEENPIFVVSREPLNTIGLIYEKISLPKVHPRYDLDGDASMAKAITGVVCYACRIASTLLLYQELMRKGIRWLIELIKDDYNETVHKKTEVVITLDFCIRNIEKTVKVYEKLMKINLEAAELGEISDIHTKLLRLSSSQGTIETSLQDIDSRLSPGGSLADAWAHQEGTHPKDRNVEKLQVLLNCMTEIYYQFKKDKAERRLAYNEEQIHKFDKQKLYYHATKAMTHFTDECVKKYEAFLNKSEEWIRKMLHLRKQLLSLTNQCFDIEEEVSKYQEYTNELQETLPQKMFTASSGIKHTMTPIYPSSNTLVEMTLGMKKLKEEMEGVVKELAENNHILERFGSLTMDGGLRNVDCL
Description: as §1

FYN = molecular target: T20, FYN (Homo sapiens, UniProt P06241); assay: Kinase Selectivity Assay; settings: read-out: Percent Inhibition at 1 μM; further: ATP at apparent Km or 100 µM
T20 construct: full-length enzymes or catalytically active fragments; purchased Invitrogen
T20 sequence (P06241 whole entry, the tested form may be a part): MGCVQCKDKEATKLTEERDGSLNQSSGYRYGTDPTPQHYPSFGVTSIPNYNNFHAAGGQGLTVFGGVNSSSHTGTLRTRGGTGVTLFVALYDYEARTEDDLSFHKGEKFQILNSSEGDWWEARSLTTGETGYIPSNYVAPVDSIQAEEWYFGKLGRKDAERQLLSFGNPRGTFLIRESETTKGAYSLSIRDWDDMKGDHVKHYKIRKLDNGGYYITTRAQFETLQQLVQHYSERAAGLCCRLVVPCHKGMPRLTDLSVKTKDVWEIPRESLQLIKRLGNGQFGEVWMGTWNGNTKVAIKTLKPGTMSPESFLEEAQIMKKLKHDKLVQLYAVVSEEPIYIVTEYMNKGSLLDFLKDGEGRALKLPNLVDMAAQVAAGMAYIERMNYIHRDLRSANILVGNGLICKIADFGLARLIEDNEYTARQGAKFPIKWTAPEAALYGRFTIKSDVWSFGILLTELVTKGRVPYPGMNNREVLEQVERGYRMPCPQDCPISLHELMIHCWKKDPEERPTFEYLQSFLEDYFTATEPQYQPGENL
Description: as §1

KDR (VEGFR2) = molecular target: T21, KDR (VEGFR2) (Homo sapiens, UniProt P35968); assay: Kinase Selectivity Assay; settings: read-out: Percent Inhibition at 1 μM; further: ATP at apparent Km or 100 µM
T21 construct: full-length enzymes or catalytically active fragments; purchased Invitrogen
Description: as §1

BLK = molecular target: T22, BLK (Homo sapiens, UniProt P51451); assay: Kinase Selectivity Assay; settings: read-out: Percent Inhibition at 1 μM; further: ATP at apparent Km or 100 µM
T22 construct: purchased Invitrogen, Carlsbad, Calif
Description: as §1

AURKB (Aurora B) = molecular target: T23, AURKB (Aurora B) (Homo sapiens, UniProt Q96GD4); assay: Kinase Selectivity Assay; settings: read-out: Percent Inhibition at 1 μM; further: ATP at apparent Km or 100 µM
T23 construct: purchased Invitrogen, Carlsbad, Calif
T23 sequence (Q96GD4 whole entry): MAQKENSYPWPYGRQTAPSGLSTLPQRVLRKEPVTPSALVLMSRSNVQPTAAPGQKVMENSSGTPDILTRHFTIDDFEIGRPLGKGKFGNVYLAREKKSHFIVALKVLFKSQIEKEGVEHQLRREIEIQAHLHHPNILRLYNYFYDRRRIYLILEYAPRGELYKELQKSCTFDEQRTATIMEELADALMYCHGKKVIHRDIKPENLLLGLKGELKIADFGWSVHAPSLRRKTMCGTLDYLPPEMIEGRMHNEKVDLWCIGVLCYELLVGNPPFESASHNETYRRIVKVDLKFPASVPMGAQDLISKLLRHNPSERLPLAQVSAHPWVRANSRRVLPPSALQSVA
Description: as §1

FLT1 (VEGFR1) = molecular target: T24, FLT1 (VEGFR1) (Homo sapiens, UniProt P17948); assay: Kinase Selectivity Assay; settings: read-out: Percent Inhibition at 1 μM; further: ATP at apparent Km or 100 µM
T24 construct: full-length enzymes or catalytically active fragments; purchased Invitrogen
Description: as §1

ABL2 (Arg) = molecular target: T25, ABL2 (Arg) (Homo sapiens, UniProt P42684); assay: Kinase Selectivity Assay; settings: read-out: Percent Inhibition at 1 μM; further: ATP at apparent Km or 100 µM
T25 construct: purchased Invitrogen, Carlsbad, Calif
Description: as §1

LYN A = molecular target: T26, LYN A (Homo sapiens, UniProt P07948); assay: Kinase Selectivity Assay; settings: read-out: Percent Inhibition at 1 μM; further: ATP at apparent Km or 100 µM
T26 construct: full-length enzymes or catalytically active fragments; purchased Invitrogen
Description: as §1

PDGFRA T674I = molecular target: T27, PDGFRA T674I (Homo sapiens, UniProt P16234, T674I); assay: Kinase Selectivity Assay; settings: read-out: Percent Inhibition at 1 μM; further: ATP at apparent Km or 100 µM
T27 construct: full-length enzymes or catalytically active fragments; purchased Invitrogen
T27 sequence (P16234 24-1089 T674I): as the sequence (P16234 24-1089 D842V) above, with T651I, V819D counted along it
Description: as §1

STK6 (Aurora A) = molecular target: T28, STK6 (Aurora A) (Homo sapiens, UniProt O14965); assay: Kinase Selectivity Assay; settings: read-out: Percent Inhibition at 1 μM; further: ATP at apparent Km or 100 µM
T28 construct: full-length enzymes or catalytically active fragments; purchased Invitrogen
Description: as §1

KIT = molecular target: T29, KIT (Homo sapiens, UniProt P10721); assay: Kinase Selectivity Assay; settings: read-out: Percent Inhibition at 1 μM; further: ATP at apparent Km or 100 µM
T29 construct: full-length enzymes or catalytically active fragments; purchased Invitrogen
Description: as §1

NTRK1 (TRKA) = molecular target: T30, NTRK1 (TRKA) (Homo sapiens, UniProt P04629); assay: Kinase Selectivity Assay; settings: read-out: Percent Inhibition at 1 μM; further: ATP at apparent Km or 100 µM
T30 construct: full-length enzymes or catalytically active fragments; purchased Invitrogen
Description: as §1

DAPK3 (ZIPK) = molecular target: T31, DAPK3 (ZIPK) (Homo sapiens, UniProt O43293); assay: Kinase Selectivity Assay; settings: read-out: Percent Inhibition at 1 μM; further: ATP at apparent Km or 100 µM
T31 construct: purchased Invitrogen, Carlsbad, Calif
Description: as §1

SRC = SRC (Homo sapiens, UniProt P12931); assay: Src Kinase Inhibition Assay; design: His (N); purchased Upstate USA Inc, Charlottesville, Va; settings: read-out: inhibition of Src at a concentration of 1 μM; 1 μM compound; 33P-ATP filter assay
Description: Compounds were assayed for Src kinase inhibitory activity using N-terminal His-tagged human Src (Upstate USA Inc, 706 Forest Street, Charlottesville, Va.).

[1] = molecular target: T32, recombinant human Flt3, residues 564-end (Homo sapiens, UniProt P36888); assay: Flt3 Kinase Inhibition Assay; settings: read-out: inhibition of Flt3 at a concentration of 1 μM; 1 μM compound; 33P-ATP filter assay
T32 construct: recombinant human Flt3, residues 564-end; GST (N); purchased Upstate USA Inc, Charlottesville, Va
Description: Compounds were assayed for Flt3 kinase inhibitory activity using N-terminal GST-tagged recombinant human Flt3, residues 564-end (Upstate USA Inc, 706 Forest Street, Charlottesville, Va.). Serial dilutions of compound were assayed in a final reaction volume of 25 μL by incubating a solution of the above Flt3 kinase (5-10 mU), 8 mM MOPS (3-(N-morpholino) propanesulfonic acid) pH 7.0, 0.2 mM EDTA (ethylenediamine tetracetic acid), 50 μM amino acid sequence [sequence] (SEQ ID NO: 1)(Upstate USA Inc, 706 Forest Street, Charlottesville, Va.), and 10 mM magnesium acetate and [γ-^33P-ATP] (specific activity of about 500 cpm/pmol, concentration as required). The reaction was initiated by the addition of the magnesium acetate and [γ-^33P-ATP] mixture. After incubation for 40 minutes at room temperature, the reaction was stopped bythe addition of 5 μL of a 3% phosphoric acid solution. A 10 μL aliquote of the reaction was then spotted onto a P30 filtermat (PerkinElmer, Wellesley, Mass.) and washed three times for five minutes in 75 mM phosphoric acid and once in methanol prior to drying and scintillation counting. Inhibition of Flt3 activity was determined by comparison to assays that contained no inhibitor.

SMILES | inhibition at 1 µM (CSF1R (FMS)) [%] | inhibition at 1 µM (AKT1 (PKB alpha)) [%] | inhibition at 1 µM (YES1) [%] | inhibition at 1 µM (JAK2) [%] | inhibition at 1 µM (RET) [%] | inhibition at 1 µM (EPHA1) [%] | inhibition at 1 µM (FLT4 (VEGFR3)) [%] | inhibition at 1 µM (KIT T670I) [%] | inhibition at 1 µM (BTK) [%] | inhibition at 1 µM (PDGFRA D842V) [%] | inhibition at 1 µM (GSK3A (GSK3 alpha)) [%] | inhibition at 1 µM (FLT3 D835Y) [%] | inhibition at 1 µM (PDGFRA (PDGFR alpha)) [%] | inhibition at 1 µM (CDK2/cyclin A) [%] | inhibition at 1 µM (GSK3B (GSK3 beta)) [%] | inhibition at 1 µM (BMX) [%] | inhibition at 1 µM (EPHB1) [%] | inhibition at 1 µM (IRAK4) [%] | inhibition at 1 µM (TBK1) [%] | inhibition at 1 µM (FYN) [%] | other results
Cc1cc(Nc2nc(/C=C/c3ccccc3)nc(N3CCN(C)CC3)c2N)[nH]n1 [Example 10, 6-(4-methylpiperazin-1-yl)-N-(3-methyl-1H-pyrazol-5-yl)-2-[(E)-2-phenylvinyl]pyrimidin-4,5-diamine] | 80 | 9 | 80 | 61 | 95 | 52 | 87 | 44 | 28 | 9 | 38 | 80 | 58 | 8 | 26 | 19 | 32 | 14 | 73 | 50 | inhibition at 1 µM (KDR (VEGFR2)): 88%; inhibition at 1 µM (BLK): 67%; inhibition at 1 µM (AURKB (Aurora B)): 37%; inhibition at 1 µM (FLT1 (VEGFR1)): 25%; inhibition at 1 µM (ABL2 (Arg)): 32%; inhibition at 1 µM (LYN A): 63%; inhibition at 1 µM (PDGFRA T674I): 65%; inhibition at 1 µM (STK6 (Aurora A)): 83%; inhibition at 1 µM (KIT): 39%; inhibition at 1 µM (NTRK1 (TRKA)): 92%; inhibition at 1 µM (DAPK3 (ZIPK)): 93%
Cc1cc(Nc2cc(N3CCN(C)CC3)nc(/C=C/c3ccccc3)n2)n[nH]1 [Example 31, 6-(4-methylpiperazin-1-yl)-N-(3-methyl-1H-pyrazol-5-yl)-2-[(E)-2-phenylvinyl]pyrimidin-4-amine] | 97 | 5 | 88 | 91 | 98 | 77 | 97 | 79 | 63 | 24 | 36 | 98 | 83 | 8 | 28 | 61 | 61 | 63 | 80 | 89 | inhibition at 1 µM (SRC): ~95%; inhibition at 1 µM [1]: ~96%; inhibition at 1 µM (KDR (VEGFR2)): 96%; inhibition at 1 µM (BLK): 90%; inhibition at 1 µM (AURKB (Aurora B)): 75%; inhibition at 1 µM (FLT1 (VEGFR1)): 53%; inhibition at 1 µM (ABL2 (Arg)): 74%; inhibition at 1 µM (LYN A): 84%; inhibition at 1 µM (PDGFRA T674I): 88%; inhibition at 1 µM (STK6 (Aurora A)): 96%; inhibition at 1 µM (KIT): 75%; inhibition at 1 µM (NTRK1 (TRKA)): 96%; inhibition at 1 µM (DAPK3 (ZIPK)): 68%
